These are literature values, as cited in PMC9516332 (Frontiers in Oncology, 2022).

Common to all, as to details: cited from earlier work
In series [1] the target is panel of 255 wild-type kinases (Homo sapiens, UniProt Q9Y3S1).
Series [2] concerns the target panel of 255 wild-type kinases (Homo sapiens, UniProt O96013).
Series [3] has as its target panel of 255 wild-type kinases (Homo sapiens, UniProt Q9H2G2).
For series [4], the target named is T1, panel of 255 wild-type kinases (Homo sapiens, UniProt Q9UHD2).
T1 sequence (Q9UHD2 1-729): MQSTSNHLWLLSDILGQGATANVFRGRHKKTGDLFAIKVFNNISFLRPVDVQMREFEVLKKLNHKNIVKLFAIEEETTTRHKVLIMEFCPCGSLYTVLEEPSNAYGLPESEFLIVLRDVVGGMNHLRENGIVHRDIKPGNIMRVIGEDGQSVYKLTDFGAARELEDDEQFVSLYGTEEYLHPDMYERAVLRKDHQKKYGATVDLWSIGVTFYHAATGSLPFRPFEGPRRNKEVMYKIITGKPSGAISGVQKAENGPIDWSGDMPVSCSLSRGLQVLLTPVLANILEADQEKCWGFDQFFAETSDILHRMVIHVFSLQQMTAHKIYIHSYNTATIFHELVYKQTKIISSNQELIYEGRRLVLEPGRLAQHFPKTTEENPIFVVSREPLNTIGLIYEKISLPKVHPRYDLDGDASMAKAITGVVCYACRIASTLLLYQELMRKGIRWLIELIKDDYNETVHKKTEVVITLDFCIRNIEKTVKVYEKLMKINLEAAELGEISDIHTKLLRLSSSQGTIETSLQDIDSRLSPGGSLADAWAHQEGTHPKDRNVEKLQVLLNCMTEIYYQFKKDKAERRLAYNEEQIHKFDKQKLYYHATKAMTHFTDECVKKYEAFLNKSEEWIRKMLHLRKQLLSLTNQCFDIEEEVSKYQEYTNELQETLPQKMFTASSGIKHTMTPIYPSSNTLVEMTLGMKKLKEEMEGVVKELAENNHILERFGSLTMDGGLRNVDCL

Series [5] concerns the target panel of 255 wild-type kinases (Homo sapiens, UniProt P31749).
Series [6] concerns the target panel of 255 wild-type kinases (Homo sapiens, UniProt Q9UBS0).
Series [7] concerns the target panel of 255 wild-type kinases (Homo sapiens, UniProt P11309).
Series [8] concerns the target T2, panel of 255 wild-type kinases (Homo sapiens, UniProt Q96KB5).
T2 sequence (Q96KB5 1-322): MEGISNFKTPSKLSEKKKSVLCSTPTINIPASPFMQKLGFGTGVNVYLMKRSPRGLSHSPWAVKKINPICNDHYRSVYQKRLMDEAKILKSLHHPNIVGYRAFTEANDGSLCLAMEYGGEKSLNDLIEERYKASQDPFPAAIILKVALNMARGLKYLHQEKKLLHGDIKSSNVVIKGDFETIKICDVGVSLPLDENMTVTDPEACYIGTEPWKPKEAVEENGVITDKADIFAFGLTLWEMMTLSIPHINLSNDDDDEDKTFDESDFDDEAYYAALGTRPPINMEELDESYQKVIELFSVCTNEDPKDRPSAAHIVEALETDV

Series [9] concerns the target panel of 255 wild-type kinases (Homo sapiens, UniProt P27448).
The target in series [10] is panel of 255 wild-type kinases (Homo sapiens, UniProt O95819).
The target in series [11] is panel of 255 wild-type kinases (Homo sapiens, UniProt P22612).
In series [12] the target is panel of 255 wild-type kinases (Homo sapiens, UniProt P24723).
For series [13], the target named is panel of 255 wild-type kinases (Homo sapiens, UniProt P06213).
Series [14] has as its target panel of 255 wild-type kinases (Homo sapiens, UniProt Q9Y6E0).
For series [15], the target named is panel of 255 wild-type kinases (Homo sapiens, UniProt P11802).
Setting [16] is: kinase WNK2, 1 µmol/L single concentration, ref DOI: 10.1158/1535-7163.MCT-18-0877.
Setting [17] is: PAK4, 1 µmol/L single concentration, ref DOI: 10.1158/1535-7163.MCT-18-0877.
Setting [18] is: kinase SLK, 1 µmol/L single concentration, ref DOI: 10.1158/1535-7163.MCT-18-0877.
Where [19] appears, read: kinase TBK1, 1 µmol/L single concentration, ref DOI: 10.1158/1535-7163.MCT-18-0877.
Setting [20] is: AKT1 kinase assay, 1 µmol/L single concentration, ref DOI: 10.1158/1535-7163.MCT-18-0877.
Setting [21] is: p70S6Kβ, 1 µmol/L single concentration, ref DOI: 10.1158/1535-7163.MCT-18-0877.
The mark [22] stands for this setting: kinase PIM1, 1 µmol/L single concentration, ref DOI: 10.1158/1535-7163.MCT-18-0877.
Where [23] appears, read: kinase PBK, 1 µmol/L single concentration, ref DOI: 10.1158/1535-7163.MCT-18-0877.
Where [24] appears, read: MARK3, 1 µmol/L single concentration, ref DOI: 10.1158/1535-7163.MCT-18-0877.
The mark [25] stands for this setting: kinase HGK, 1 µmol/L single concentration, ref DOI: 10.1158/1535-7163.MCT-18-0877.
[26] abbreviates: kinase PKACγ, 1 µmol/L single concentration, ref DOI: 10.1158/1535-7163.MCT-18-0877.
The mark [27] stands for this setting: kinase PKCη, 1 µmol/L single concentration, ref DOI: 10.1158/1535-7163.MCT-18-0877.
The mark [28] stands for this setting: kinase INSR, 1 µmol/L single concentration, ref DOI: 10.1158/1535-7163.MCT-18-0877.
Where [29] appears, read: MST3, 1 µmol/L single concentration, ref DOI: 10.1158/1535-7163.MCT-18-0877.
Where [30] appears, read: CDK4/CycD3 kinase assay, 1 µmol/L single concentration, ref DOI: 10.1158/1535-7163.MCT-18-0877.

Like-named read-outs stand apart in the source and are kept apart here.

Regarding `O=C(c1ccc(F)c(F)c1Nc1ccc(I)cc1F)N1CC(O)([C@@H]2CCCCN2)C1` [cobimetinib], the “%-inhibition at 1 µmol/L, WNK2” value in series [1] (setting [16]) is 5%. In addition, the “%-inhibition, PAK4” value in series [2] (setting [17]) was 2%. The “%-inhibition at 1 µmol/L, SLK” value in series [3] (setting [18]) is recorded as 6%. In addition, the “%-inhibition at 1 µmol/L, TBK1” value in series [4] (setting [19]) is on record as 4%. Further, in series [5] (setting [20]), the “%-inhibition AKT1” value is -7%. In addition, in series [6] (setting [21]), the “%-inhibition, p70S6Kβ” value is given as 5.59%. For the same compound, the “%-inhibition at 1 µmol/L, PIM1” value in series [7] (setting [22]) is listed as 1%. In addition, in [8] (setting [23]), the “%-inhibition at 1 µmol/L, PBK” value was 76%. Also, the “%-inhibition, MARK3” value in series [9] (setting [24]) was -1.51%. In addition, in [10] (setting [25]), the “%-inhibition at 1 µmol/L, HGK” value is 2.27%. The “%-inhibition at 1 µmol/L, PKACγ” value in series [11] (setting [26]) is listed as 4.37%. Also, the “%-inhibition at 1 µmol/L, PKCη” value in series [12] (setting [27]) is reported as -2%. Also, the “%-inhibition at 1 µmol/L, INSR” value in [13] (setting [28]) was 2.48%. Moreover, the “%-inhibition, MST3” value in series [14] (setting [29]) is listed as 4.62%. Also, the “%-inhibition CDK4/CycD3” value in [15] (setting [30]) is reported as 0.294%.

With `CC#CC(=O)N1CCC[C@H]1c1nc(-c2ccc(C(=O)Nc3ccccn3)cc2)c2c(N)nccn12` [acalabrutinib], the “%-inhibition at 1 µmol/L, WNK2” value in series [1] (setting [16]) is 0.787%. In addition, the “%-inhibition, PAK4” value in [2] (setting [17]) is reported as -1.65%. For the same compound, the “%-inhibition at 1 µmol/L, SLK” value in series [3] (setting [18]) is listed as 1.61%. Moreover, in series [4] (setting [19]), the “%-inhibition at 1 µmol/L, TBK1” value is reported as 2.14%. Further, the “%-inhibition AKT1” value in [5] (setting [20]) is reported as -6%. Further, the “%-inhibition, p70S6Kβ” value in series [6] (setting [21]) is given as -14%. Further, the “%-inhibition at 1 µmol/L, PIM1” value in series [7] (setting [22]) is reported as -4.28%. Besides, the “%-inhibition at 1 µmol/L, PBK” value in [8] (setting [23]) was -15%. The “%-inhibition, MARK3” value in series [9] (setting [24]) is -2.57%. In addition, in series [10] (setting [25]), the “%-inhibition at 1 µmol/L, HGK” value is on record as -1.42%. In [11] (setting [26]), the “%-inhibition at 1 µmol/L, PKACγ” value is on record as 1.68%. In addition, the “%-inhibition at 1 µmol/L, PKCη” value in [12] (setting [27]) is -3.18%. For the same compound, the “%-inhibition at 1 µmol/L, INSR” value in [13] (setting [28]) is given as -4.67%. The “%-inhibition, MST3” value in series [14] (setting [29]) was -2.52%. The “%-inhibition CDK4/CycD3” value in [15] (setting [30]) is recorded as -13%.

As to `CCc1cc2c(cc1N1CCC(N3CCOCC3)CC1)C(C)(C)c1[nH]c3cc(C#N)ccc3c1C2=O` [alectinib], in series [1] (setting [16]), the “%-inhibition at 1 µmol/L, WNK2” value is recorded as 1.16%. For the same compound, the “%-inhibition, PAK4” value in [2] (setting [17]) is listed as 6.55%. In addition, in series [3] (setting [18]), the “%-inhibition at 1 µmol/L, SLK” value was 12%. Also, in series [4] (setting [19]), the “%-inhibition at 1 µmol/L, TBK1” value is 6%. Moreover, the “%-inhibition AKT1” value in series [5] (setting [20]) is recorded as 3.25%. The “%-inhibition, p70S6Kβ” value in series [6] (setting [21]) is listed as 9%. Also, the “%-inhibition at 1 µmol/L, PIM1” value in [7] (setting [22]) is reported as 15%. In addition, the “%-inhibition at 1 µmol/L, PBK” value in [8] (setting [23]) is reported as -2.63%. The “%-inhibition, MARK3” value in series [9] (setting [24]) is on record as 9%. In series [10] (setting [25]), the “%-inhibition at 1 µmol/L, HGK” value is recorded as 20%. In series [11] (setting [26]), the “%-inhibition at 1 µmol/L, PKACγ” value was 3%. In addition, the “%-inhibition at 1 µmol/L, PKCη” value in [12] (setting [27]) is listed as 10%. In addition, the “%-inhibition at 1 µmol/L, INSR” value in [13] (setting [28]) is 83%. In addition, in [14] (setting [29]), the “%-inhibition, MST3” value is -2.37%. The “%-inhibition CDK4/CycD3” value in series [15] (setting [30]) is on record as -1.89%.

As to `COc1cc(N2CCC(N3CCN(C)CC3)CC2)ccc1Nc1ncc(Cl)c(Nc2ccccc2P(C)(C)=O)n1` [brigatinib], in [1], the “%-inhibition at 1 µmol/L, WNK2” value is recorded as 0.119%. Further, the “%-inhibition, PAK4” value in series [2] was 45%. Also, the “%-inhibition at 1 µmol/L, SLK” value in [3] is listed as 95%. Also, the “%-inhibition at 1 µmol/L, TBK1” value in series [4] was 23%. For the same compound, the “%-inhibition AKT1” value in [5] is recorded as 1.5%. Further, the “%-inhibition, p70S6Kβ” value in series [6] is 98%. Moreover, the “%-inhibition at 1 µmol/L, PIM1” value in series [7] is on record as 3%. For the same compound, the “%-inhibition at 1 µmol/L, PBK” value in series [8] is 1.09%. The “%-inhibition, MARK3” value in series [9] was 99%. Moreover, the “%-inhibition at 1 µmol/L, HGK” value in [10] was 18%. Moreover, the “%-inhibition at 1 µmol/L, PKACγ” value in [11] is recorded as 9%. Also, the “%-inhibition at 1 µmol/L, PKCη” value in series [12] was 17%. Also, the “%-inhibition at 1 µmol/L, INSR” value in series [13] was 101%. For the same compound, the “%-inhibition, MST3” value in [14] was 13%. Also, the “%-inhibition CDK4/CycD3” value in series [15] is 40%.
